Here are results for 1 compound from article PMC9748189 (Journal of Pain Research, 2022).

The structures appear in SMILES notation.

In one experiment the target is T1, COX-2 (Ovis aries, UniProt P79208).
T1 sequence (P79208 17-603): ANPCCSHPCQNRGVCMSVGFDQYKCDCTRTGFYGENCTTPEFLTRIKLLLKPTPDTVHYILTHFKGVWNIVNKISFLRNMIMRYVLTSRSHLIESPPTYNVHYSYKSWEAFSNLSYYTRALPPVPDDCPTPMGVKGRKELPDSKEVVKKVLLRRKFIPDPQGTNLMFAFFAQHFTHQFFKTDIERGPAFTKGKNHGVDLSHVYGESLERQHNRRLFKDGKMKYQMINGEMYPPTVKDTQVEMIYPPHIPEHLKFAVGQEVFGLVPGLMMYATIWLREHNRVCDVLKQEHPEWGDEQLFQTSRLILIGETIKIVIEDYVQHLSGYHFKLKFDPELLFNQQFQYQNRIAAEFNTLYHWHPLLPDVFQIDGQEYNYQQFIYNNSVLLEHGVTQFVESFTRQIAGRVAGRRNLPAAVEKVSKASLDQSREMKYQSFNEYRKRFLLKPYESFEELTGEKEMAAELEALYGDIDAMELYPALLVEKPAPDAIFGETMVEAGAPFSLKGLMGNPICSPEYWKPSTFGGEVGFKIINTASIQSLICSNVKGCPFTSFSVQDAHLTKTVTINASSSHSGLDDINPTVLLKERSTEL
The experiment is described as follows: recombinant COX-2 enzyme inhibition. In kind it is biochemical.

The next experiment addresses T2, COX-1 (Ovis aries, UniProt P05979).
T2 sequence (P05979 25-600): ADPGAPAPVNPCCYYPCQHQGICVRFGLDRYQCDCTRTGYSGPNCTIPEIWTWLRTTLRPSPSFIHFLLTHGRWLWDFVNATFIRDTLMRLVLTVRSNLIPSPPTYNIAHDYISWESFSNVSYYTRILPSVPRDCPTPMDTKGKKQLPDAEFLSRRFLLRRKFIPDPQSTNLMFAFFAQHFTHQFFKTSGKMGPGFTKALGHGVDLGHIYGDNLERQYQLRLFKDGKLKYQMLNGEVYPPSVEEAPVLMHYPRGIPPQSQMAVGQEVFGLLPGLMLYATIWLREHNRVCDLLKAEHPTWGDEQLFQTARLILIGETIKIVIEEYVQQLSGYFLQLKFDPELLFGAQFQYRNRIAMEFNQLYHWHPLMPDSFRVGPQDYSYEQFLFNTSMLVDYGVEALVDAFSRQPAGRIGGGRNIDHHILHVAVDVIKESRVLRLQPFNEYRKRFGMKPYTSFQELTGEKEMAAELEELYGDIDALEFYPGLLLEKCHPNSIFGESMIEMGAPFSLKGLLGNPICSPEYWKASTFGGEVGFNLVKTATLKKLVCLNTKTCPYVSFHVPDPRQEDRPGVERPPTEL
Nature of the experiment: recombinant COX-1 enzyme inhibition. Format: biochemical.

For the compound `CC(=O)Oc1ccc(NCCc2ccc(C(F)(F)F)cc2)cc1C(=O)O` [flusalazine, 2-acetoxy-5-(2-4-(trifluoromethyl)-phenethylamino)-benzoic acid], the IC50 (as a rule, the concentration that inhibits the measured activity by half) at COX-2 amounted to 651 µM; on COX-1, 16.2 µM.
